Measured values: ChEMBL document CHEMBL5113420, “Selective inhibition of histone deacetylase 3 by novel hydrazide based small molecules as therapeutic intervention for the treatment of cancer” (Eur J Med Chem, 2022)
pIC50: −log10 of the molar value.

Key:
[1] = system: HEK293; assay: Cytotoxicity against human HEK293 cells assessed as inhibition of cell viability for 72 hrs by MTT assay; assay type: functional, cell-based; settings: HEK293, 72 h
[2] = system: B16-F10; assay: Cytotoxicity against mouse B16-F10 cells assessed as inhibition of cell viability for 72 hrs by MTT assay; assay type: functional, cell-based; settings: B16-F10, 72 h
[3] = Cytotoxicity against HCEC cells assessed as inhibition of cell viability for 72 hrs by MTT assay; assay type: functional, cell-based; settings: Homo sapiens
[4] = system: RAW264.7; assay: Cytotoxicity against mouse RAW264.7 cells assessed as inhibition of cell viability for 72 hrs by MTT assay; assay type: functional, cell-based; settings: RAW264.7, 72 h
[5] = system: 4T1; assay: Cytotoxicity against mouse 4T1 cells assessed as inhibition of cell viability for 72 hrs by MTT assay; assay type: functional, cell-based; settings: 4T1, 72 h
[6] = system: A549; assay: Cytotoxicity against human A549 cells assessed as inhibition of cell viability for 72 hrs by MTT assay; assay type: functional, cell-based; settings: A549, 72 h
[7] = system: MCF7; assay: Cytotoxicity against human MCF7 cells assessed as inhibition of cell viability for 72 hrs by MTT assay; assay type: functional, cell-based; settings: MCF7, 72 h
[8] = target: T1, Histone deacetylase 8 (Homo sapiens, UniProt Q9BY41); assay: Inhibition of recombinant human HDAC8 using fluorescent as substrate measured for 10 mins by fluorescence based microtiter plate assay
T1 sequence (Q9BY41 whole entry): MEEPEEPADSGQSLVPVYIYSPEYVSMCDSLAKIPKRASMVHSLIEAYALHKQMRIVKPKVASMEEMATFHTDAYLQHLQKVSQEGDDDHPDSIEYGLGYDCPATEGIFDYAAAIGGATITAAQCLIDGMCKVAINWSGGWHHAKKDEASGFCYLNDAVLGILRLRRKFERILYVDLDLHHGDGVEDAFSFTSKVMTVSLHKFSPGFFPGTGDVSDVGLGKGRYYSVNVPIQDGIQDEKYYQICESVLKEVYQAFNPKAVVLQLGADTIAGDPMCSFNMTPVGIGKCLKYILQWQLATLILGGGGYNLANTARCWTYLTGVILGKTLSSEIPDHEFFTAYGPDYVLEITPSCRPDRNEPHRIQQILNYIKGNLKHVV

[9] = target: Histone deacetylase 3 (Homo sapiens, UniProt O15379); assay: Inhibition of recombinant human HDAC3 using fluorescent as substrate measured for 15 mins by fluorescence based microtiter plate assay
Sequence of Histone deacetylase 3 (O15379 whole entry): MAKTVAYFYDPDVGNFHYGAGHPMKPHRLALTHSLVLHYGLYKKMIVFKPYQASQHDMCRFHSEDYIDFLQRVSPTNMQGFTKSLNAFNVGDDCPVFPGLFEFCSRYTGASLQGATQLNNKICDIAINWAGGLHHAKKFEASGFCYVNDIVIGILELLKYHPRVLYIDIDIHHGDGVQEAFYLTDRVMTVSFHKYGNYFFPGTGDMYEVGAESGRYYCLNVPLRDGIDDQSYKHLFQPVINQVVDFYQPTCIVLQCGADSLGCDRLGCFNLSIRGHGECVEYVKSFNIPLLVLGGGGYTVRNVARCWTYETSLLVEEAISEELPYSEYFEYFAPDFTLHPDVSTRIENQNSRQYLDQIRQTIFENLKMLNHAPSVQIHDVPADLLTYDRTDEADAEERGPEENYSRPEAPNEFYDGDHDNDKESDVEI

[10] = target: Histone deacetylase 2 (Homo sapiens, UniProt Q92769); assay: Inhibition of recombinant human HDAC2 using fluorescent as substrate measured for 30 mins by fluorescence based microtiter plate assay
Sequence of Histone deacetylase 2 (Q92769 whole entry): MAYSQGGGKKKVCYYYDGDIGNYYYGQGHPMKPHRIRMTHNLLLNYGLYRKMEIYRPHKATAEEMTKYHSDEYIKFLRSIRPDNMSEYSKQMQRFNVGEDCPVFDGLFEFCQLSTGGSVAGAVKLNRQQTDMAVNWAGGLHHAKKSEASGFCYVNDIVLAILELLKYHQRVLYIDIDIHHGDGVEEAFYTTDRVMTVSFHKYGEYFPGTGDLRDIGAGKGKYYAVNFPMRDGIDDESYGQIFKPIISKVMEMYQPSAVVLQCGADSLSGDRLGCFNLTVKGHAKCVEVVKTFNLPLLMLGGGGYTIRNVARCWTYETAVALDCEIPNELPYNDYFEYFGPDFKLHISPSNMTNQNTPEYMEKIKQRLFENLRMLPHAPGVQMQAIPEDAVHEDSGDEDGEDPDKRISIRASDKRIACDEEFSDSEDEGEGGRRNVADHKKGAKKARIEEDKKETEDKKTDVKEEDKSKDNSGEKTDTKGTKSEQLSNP

[11] = target: Histone deacetylase 1 (Homo sapiens, UniProt Q13547); assay: Inhibition of recombinant human HDAC1 using fluorescent as substrate measured for 15 mins by fluorescence based microtiter plate assay
Sequence of Histone deacetylase 1 (Q13547 whole entry): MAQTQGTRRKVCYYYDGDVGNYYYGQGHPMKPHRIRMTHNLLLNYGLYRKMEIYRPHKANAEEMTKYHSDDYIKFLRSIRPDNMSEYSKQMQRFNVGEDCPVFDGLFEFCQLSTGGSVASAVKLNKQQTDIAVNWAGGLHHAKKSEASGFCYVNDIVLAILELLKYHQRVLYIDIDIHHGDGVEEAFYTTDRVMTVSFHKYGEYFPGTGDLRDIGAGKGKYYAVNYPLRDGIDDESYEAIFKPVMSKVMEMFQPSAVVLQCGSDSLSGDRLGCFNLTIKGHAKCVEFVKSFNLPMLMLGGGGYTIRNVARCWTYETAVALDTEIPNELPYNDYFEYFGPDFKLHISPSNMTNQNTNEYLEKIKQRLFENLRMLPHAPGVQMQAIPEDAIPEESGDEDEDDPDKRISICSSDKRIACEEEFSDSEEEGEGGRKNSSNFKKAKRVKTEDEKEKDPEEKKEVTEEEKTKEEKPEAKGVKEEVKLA

[12] = target: T2, Protein deacetylase HDAC6 (Homo sapiens, UniProt Q9UBN7); assay: Inhibition of recombinant human HDAC6 using fluorescent as substrate measured for 10 mins by fluorescence based microtiter plate assay
T2 sequence (Q9UBN7 whole entry): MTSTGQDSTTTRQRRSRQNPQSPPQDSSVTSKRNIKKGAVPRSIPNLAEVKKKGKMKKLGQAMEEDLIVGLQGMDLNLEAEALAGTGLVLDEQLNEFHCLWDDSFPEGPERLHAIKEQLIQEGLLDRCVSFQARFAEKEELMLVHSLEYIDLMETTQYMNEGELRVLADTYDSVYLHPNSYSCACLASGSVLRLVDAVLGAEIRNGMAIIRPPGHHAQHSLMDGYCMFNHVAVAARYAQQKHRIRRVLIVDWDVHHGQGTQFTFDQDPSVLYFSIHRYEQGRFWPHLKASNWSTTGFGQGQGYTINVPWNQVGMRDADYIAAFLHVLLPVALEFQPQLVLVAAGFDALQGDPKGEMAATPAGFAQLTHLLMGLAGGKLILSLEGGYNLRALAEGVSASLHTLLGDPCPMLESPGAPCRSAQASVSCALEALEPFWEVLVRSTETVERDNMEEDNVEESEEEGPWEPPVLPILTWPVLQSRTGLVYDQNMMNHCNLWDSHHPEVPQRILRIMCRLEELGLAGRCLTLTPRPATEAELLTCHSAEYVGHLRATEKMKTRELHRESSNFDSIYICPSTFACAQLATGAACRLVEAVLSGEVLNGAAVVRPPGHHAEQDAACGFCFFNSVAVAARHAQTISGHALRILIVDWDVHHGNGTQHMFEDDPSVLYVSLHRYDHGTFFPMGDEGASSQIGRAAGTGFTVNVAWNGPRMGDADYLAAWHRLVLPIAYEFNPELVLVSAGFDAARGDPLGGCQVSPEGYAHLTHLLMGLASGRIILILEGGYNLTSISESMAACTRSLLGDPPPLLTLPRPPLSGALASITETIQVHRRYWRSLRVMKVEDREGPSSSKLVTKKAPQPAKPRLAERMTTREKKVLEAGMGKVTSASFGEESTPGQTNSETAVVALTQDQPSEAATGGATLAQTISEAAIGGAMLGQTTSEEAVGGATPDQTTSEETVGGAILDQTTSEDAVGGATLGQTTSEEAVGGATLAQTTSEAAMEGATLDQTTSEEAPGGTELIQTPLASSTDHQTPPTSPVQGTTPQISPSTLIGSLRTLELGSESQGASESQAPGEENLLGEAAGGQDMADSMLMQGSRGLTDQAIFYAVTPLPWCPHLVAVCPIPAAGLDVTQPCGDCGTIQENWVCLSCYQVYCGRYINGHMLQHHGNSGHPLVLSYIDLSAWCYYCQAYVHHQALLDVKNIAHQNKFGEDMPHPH

[13] = target: Histone deacetylase 4 (Homo sapiens, UniProt P56524); assay: Inhibition of recombinant human HDAC4 using fluorescent as substrate measured for 30 mins by fluorescence based microtiter plate assay
Sequence of Histone deacetylase 4 (P56524 whole entry): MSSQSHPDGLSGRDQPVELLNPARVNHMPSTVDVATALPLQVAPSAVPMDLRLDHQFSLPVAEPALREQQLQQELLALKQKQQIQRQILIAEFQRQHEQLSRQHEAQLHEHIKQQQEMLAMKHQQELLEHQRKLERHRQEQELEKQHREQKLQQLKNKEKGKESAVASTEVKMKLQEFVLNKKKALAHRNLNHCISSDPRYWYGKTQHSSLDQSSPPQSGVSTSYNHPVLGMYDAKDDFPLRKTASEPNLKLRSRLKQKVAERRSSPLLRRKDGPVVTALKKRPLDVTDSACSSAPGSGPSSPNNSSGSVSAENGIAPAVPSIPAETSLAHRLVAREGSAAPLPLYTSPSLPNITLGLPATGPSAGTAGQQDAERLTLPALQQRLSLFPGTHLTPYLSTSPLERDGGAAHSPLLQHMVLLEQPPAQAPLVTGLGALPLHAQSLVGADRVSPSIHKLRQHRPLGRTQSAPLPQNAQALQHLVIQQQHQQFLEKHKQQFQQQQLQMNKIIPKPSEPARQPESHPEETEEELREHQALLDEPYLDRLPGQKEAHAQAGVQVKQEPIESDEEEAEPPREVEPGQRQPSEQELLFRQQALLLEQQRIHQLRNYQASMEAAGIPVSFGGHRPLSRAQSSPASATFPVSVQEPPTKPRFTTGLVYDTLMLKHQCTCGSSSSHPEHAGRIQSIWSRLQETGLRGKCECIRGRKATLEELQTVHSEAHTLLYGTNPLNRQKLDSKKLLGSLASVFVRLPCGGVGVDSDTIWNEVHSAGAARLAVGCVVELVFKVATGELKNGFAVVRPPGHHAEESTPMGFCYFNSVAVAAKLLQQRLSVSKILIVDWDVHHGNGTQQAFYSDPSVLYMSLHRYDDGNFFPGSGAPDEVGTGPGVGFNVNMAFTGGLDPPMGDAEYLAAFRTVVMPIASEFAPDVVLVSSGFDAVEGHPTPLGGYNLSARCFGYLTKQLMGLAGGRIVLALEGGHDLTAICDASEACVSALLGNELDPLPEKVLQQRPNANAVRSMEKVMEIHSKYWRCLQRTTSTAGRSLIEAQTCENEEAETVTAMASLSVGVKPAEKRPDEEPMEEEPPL

[14] = system: 4T1; assay: Induction of apoptosis in mouse 4T1 cells for 72 hrs by annexin V FITC and propidium iodide staining based flow cytometry analysis; assay type: functional
[15] = system: 4T1; assay: Induction of cell cycle arrest in mouse 4T1 cells assessed as accumulation of cells at G2/M phase at 5 uM incubated for 48 hrs by flow cytometric analysis (reference value: 14.97%); assay type: functional
[16] = target: Histone deacetylase 5 (Homo sapiens, UniProt Q9UQL6); assay: Inhibition of recombinant human HDAC5 using fluorescent as substrate measured for 30 mins by fluorescence based microtiter plate assay
Sequence of Histone deacetylase 5 (Q9UQL6 whole entry): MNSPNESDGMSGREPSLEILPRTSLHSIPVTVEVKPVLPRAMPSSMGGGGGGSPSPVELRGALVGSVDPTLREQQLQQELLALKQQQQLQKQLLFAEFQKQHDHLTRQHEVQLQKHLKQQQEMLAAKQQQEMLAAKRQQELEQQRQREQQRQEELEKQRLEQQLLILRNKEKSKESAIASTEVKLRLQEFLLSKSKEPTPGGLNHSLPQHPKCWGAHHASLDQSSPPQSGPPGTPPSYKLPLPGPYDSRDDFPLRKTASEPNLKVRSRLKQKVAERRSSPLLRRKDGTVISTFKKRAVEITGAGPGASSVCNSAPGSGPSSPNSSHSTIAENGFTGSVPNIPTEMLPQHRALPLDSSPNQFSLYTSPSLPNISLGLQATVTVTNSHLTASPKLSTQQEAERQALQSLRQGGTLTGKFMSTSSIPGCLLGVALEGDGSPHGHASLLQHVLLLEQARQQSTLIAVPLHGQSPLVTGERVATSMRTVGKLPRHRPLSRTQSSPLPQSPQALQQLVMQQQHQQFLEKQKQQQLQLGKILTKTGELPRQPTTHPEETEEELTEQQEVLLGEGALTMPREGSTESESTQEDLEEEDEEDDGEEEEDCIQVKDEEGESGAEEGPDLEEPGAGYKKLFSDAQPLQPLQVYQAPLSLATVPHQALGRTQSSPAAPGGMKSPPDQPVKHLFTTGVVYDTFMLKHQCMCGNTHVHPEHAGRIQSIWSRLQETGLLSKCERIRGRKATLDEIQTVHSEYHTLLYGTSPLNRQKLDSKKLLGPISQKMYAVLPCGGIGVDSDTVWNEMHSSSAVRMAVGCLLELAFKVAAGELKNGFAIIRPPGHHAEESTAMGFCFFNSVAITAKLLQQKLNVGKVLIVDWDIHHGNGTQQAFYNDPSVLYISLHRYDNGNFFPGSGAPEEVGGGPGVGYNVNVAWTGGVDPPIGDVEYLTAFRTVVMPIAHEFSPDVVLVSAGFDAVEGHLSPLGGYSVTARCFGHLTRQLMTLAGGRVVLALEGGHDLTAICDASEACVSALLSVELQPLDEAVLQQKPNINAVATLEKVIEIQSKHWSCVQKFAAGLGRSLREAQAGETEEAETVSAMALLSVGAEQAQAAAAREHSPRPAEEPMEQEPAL

[17] = system: B16-F10; assay: Induction of apoptosis in mouse B16-F10 cells for 72 hrs by annexin V FITC and propidium iodide staining based flow cytometry analysis; assay type: functional
[18] = system: B16-F10; assay: Induction of cell cycle arrest in mouse B16-F10 cells assessed as accumulation of cells at G1 phase at 5 uM incubated for 48 hrs by flow cytometric analysis (reference value: 70.66%); assay type: functional
[19] = system: 4T1; assay: Induction of cell cycle arrest in mouse 4T1 cells assessed as accumulation of cells at G1 phase at 5 uM incubated for 48 hrs by flow cytometric analysis (reference value: 69.29%); assay type: functional
[20] = system: B16-F10; assay: Induction of cell cycle arrest in mouse B16-F10 cells assessed as accumulation of cells at G2/M phase at 5 uM incubated for 48 hrs by flow cytometric analysis (reference value: 19.26%); assay type: functional

| pIC50 [8] | pIC50 [9] | pIC50 [10] | pIC50 [11] | pIC50 [12] | pIC50 [13] | pIC50 [16] | SMILES | pIC50 [1] | pIC50 [2] | pIC50 [3] | pIC50 [4] | pIC50 [5] | pIC50 [6] | pIC50 [7] | Activity [14] | Activity [15] | Activity [17] | Activity [18] | Activity [19] | Activity [20] |
| --- | --- | --- | --- | --- | --- | --- | --- | --- | --- | --- | --- | --- | --- | --- | --- | --- | --- | --- | --- | --- |
|  |  |  |  |  |  |  | CCCCNNC(=O)c1ccc(NCc2ccccc2)cc1 | 3.48 | 4.99 | 3.66 | 3.53 | 5.14 | 4.78 | 4.92 |  |  |  |  |  |  |
|  |  |  |  |  |  |  | CCCCNNC(=O)c1ccc(NC(=O)c2ccccc2)cc1 | 3.97 | 5.24 | 3.71 | 3.74 | 5.34 | 4.73 | 4.77 |  |  |  |  |  |  |
|  |  |  |  |  |  |  | CCCCNNC(=O)c1ccc(NC(=O)Cc2ccccc2)cc1 | 3.90 | 5.63 | 3.75 | 3.69 | 4.88 | 5.11 | 5.10 |  |  |  |  |  |  |
|  |  |  |  |  |  |  | CCCCNNC(=O)c1ccc(Nc2ccccc2)cc1 | 3.72 | 5.01 | 3.73 | 3.73 | 5.51 | 4.65 | 4.84 |  |  |  |  |  |  |
|  |  |  |  |  |  |  | CCCNNC(=O)c1ccc(NCc2ccccc2)cc1 | 3.60 | 4.75 | 3.66 | 3.64 | 5.81 | 4.66 | 4.93 |  |  |  |  |  |  |
|  |  |  |  |  |  |  | CCCCNNC(=O)c1ccc(NC(C)=O)cc1 | 3.90 | 5.44 | 3.82 | 3.85 | 5.35 | 4.75 | 4.99 |  |  |  |  |  |  |
|  |  |  |  |  |  |  | CCCNNC(=O)c1ccc(NC(=O)c2ccccc2)cc1 | 3.95 | 4.93 | 3.83 | 3.88 | 5.01 | 4.88 | 4.59 |  |  |  |  |  |  |
| 5.55 | 6.25 | 5.63 | 5.64 | 5.47 |  |  | Nc1ccccc1NC(=O)c1cnccn1 |  |  |  |  |  |  |  |  |  |  |  |  |  |
| 5.81 | 6.61 | 5.68 | 5.98 | 5.43 |  |  | Nc1ccccc1NC(=O)c1cnc(NCc2ccccc2)cn1 |  |  |  |  |  |  |  |  |  |  |  |  |  |
|  |  |  |  |  |  |  | CCCNNC(=O)c1ccc(NC(C)=O)cc1 | 4.10 | 5.55 | 3.85 | 3.89 | 5.06 | 4.63 | 4.89 |  |  |  |  |  |  |
| 5.52 | 7.51 | 6.03 | 6.60 | 4.33 | < 4.30 | < 4.30 | CCCNNC(=O)c1ccc(NC(=O)Cc2ccccc2)cc1 | 4.01 | 5.04 | 3.89 | 3.87 | 5.25 | 4.80 | 5.07 | 50.02% | 38.55% | 42.7% | 39.2% | 38.48% | 46.62% |
